According to patent publication US20210299038A1, “METHOD TO PREVENT AND TREAT OCULAR CATARACT BY CALCIUM CHANNEL BLOCKERS, ANGIOTENSIN CONVERTING ENZYME INHIBITORS, AND ANGIOTENSIN RECEPTOR BLOCKERS” (priority 2018, published 2021):

Tests used:
cataract opacities = settings: 3119 participants aged 55 to 80; after 10 years of supplementation; cited from earlier work
ocular cataract [1] = test: Treatment of a patient diagnosed with ocular cataract, one eye treated, other eye untreated; type: in vivo, human
Text: A patient is diagnosed with ocular cataract. A composition comprising the calcium channel blocker nifedipine is directly applied to the vitreous surface of one eye while the other eye is left untreated. […] A patient is diagnosed with ocular cataract. A composition comprising the ACE inhibitor enalapril is directly applied to the vitreous surface of one eye while the other eye is left untreated. […] A patient is diagnosed with ocular cataract. A composition comprising the angiotensin receptor blocker losartan is directly applied to the vitreous surface of one eye while the other eye is left untreated. […] A patient is diagnosed with ocular cataract. A composition comprising the calcium channel blocker nifedipine is applied to the eye by intravitreal or intraocular injection while the other eye is left untreated. […] A patient is diagnosed with ocular cataract. A composition comprising the ACE inhibitor enalapril is applied to the eye by intravitreal or intraocular injection while the other eye is left untreated. […] A patient is diagnosed with ocular cataract. A composition comprising the angiotensin receptor blocker losartan is applied to the eye by intravitreal or intraocular injection while the other eye is left untreated.

ocular cataract [2] = test: Prevention of recurrence of ocular cataract in a successfully treated patient, one eye treated, other eye untreated; type: in vivo, human; settings: untreated eye shows recurrence
Text: A composition comprising the calcium channel blocker nifedipine is directly applied to the vitreous surface of one eye while the other eye is left untreated. […] A composition comprising the ACE inhibitor enalapril is directly applied to the vitreous surface of one eye while the other eye is left untreated. […] A composition comprising the angiotensin receptor blocker losartan is directly applied to the vitreous surface of one eye while the other eye is left untreated. […] A composition comprising the calcium channel blocker nifedipine is applied to the eye by intravitreal or intraocular injection while the other eye is left untreated. […] A composition comprising the ACE inhibitor enalapril is applied to the eye by intravitreal or intraocular injection while the other eye is left untreated. […] A composition comprising the angiotensin receptor blocker losartan is applied to the eye by intravitreal or intraocular injection while the other eye is left untreated.

[3] = composition applied by intravitreal or intraocular injection
[4] = composition directly applied to the vitreous surface of one eye

CC1=C[C@H](O)CC(C)(C)[C@H]1/C=C/C(C)=C/C=C/C(C)=C/C=C/C=C(C)/C=C/C=C(C)/C=C/C1=C(C)C[C@@H](O)CC1(C)C [lutein]
nuclear cataract score opacities (cataract opacities): No reduction

CCCCc1nc(Cl)c(CO)n1Cc1ccc(-c2ccccc2-c2nn[nH]n2)cc1 [losartan]
symptoms of ocular cataract in treated eye versus untreated eye (ocular cataract [1]; [3]): reduced symptoms of ocular cataract | symptoms of ocular cataract in treated eye versus untreated eye (ocular cataract [1]; [4]): reduced symptoms of ocular cataract | development (recurrence) of ocular cataract in treated eye (ocular cataract [2]; [3]): not develop ocular cataract | development (recurrence) of ocular cataract in treated eye (ocular cataract [2]; [4]): not develop ocular cataract

CCOC(=O)[C@H](CCc1ccccc1)N[C@@H](C)C(=O)N1CCC[C@H]1C(=O)O [enalapril]
symptoms of ocular cataract in treated eye versus untreated eye (ocular cataract [1]; [3]): reduced symptoms of ocular cataract | symptoms of ocular cataract in treated eye versus untreated eye (ocular cataract [1]; [4]): reduced symptoms of ocular cataract | development (recurrence) of ocular cataract in treated eye (ocular cataract [2]; [3]): not develop ocular cataract | development (recurrence) of ocular cataract in treated eye (ocular cataract [2]; [4]): not develop ocular cataract

CC1=C(/C=C/C(C)=C/C=C/C(C)=C/C=C/C=C(C)/C=C/C=C(C)/C=C/C2=C(C)C[C@@H](O)CC2(C)C)C(C)(C)C[C@H](O)C1 [zeaxanthin]
nuclear cataract score opacities (cataract opacities): No reduction
